This series in a line: Photostability of avobenzone in combination with solvents (UV absorbance profile before and after 10 MED radiation). It counts as physicochemical. The conditions noted are these: avobenzone with the solvent; for Stability of Avobenzone: 10 MED radiation, solar simulator, UV absorbance 290-400 nm on PMMA plates; for Stability of avobenzone-solvent combination (UV absorbance profile after 10 MED radiation vs initial, FIG. 1 to FIG. 6): before and after 10 MED radiation. The source says:
10 minimal erythemal dose (MED) is a quantified dose of radiation that is known for causing skin damage. UV screening agents will eventually breakdown into smaller molecule after prolonged exposure to UV radiation. This is a common, expected phenomenon however, some UV screening agents will degrade faster within the time a person is exposed to sunlight. If the UV screening agent degrades, it loses the ability to absorb UV radiations and eventually results in a lower absorption profile, that translate into a lower SPF value.
If the absorption profile of a specimen, prepared from a UV screening agent-solvent combination, measured after a predefined exposure of 10 MED radiation, reads similar to that of its initial readings, then the UV screening agent is said to be stable in that particular combination of solvent.
Method of testing photostability: For each test formulations prepared according to Table-1 to Table-7, 1.80 mg/cm^2 of samples were deposited on PMMA (polymethyl methacrylate) plates and spread evenly using finger cots. Three plates were prepared for each product. The initial UV absorbance profile of each slide was measured with a UV-VIS spectrophotometer in the wavelength range of 290-400 nm. Four readings were taken for each slide. The test slides were then exposed to 10 MED radiation using a Solar Light LS1000R3 solar simulator. The slides were then equilibrated at room temperature for 15 minutes, and the UV absorbance profile post radiation was measured. The readings were then plotted to correlate initial absorbance behavior of the specimens to that of post radiation. Any degradation of the UV screening agent will result in a lower absorbance readings compared to that of the initial absorbance profile.
FIG. 1 to FIG. 6 illustrate graphs plotted based on UV absorbance profile measured before and after an exposure of 10 MED radiation on test specimens comprising combination of avobenzone and solvents selected from Table-8.

Here are results for 23 compounds from patent publication US20240374492A1, “A SUNSCREEN COMPOSITION COMPRISING AVOBENZONE AND A METHOD FOR PHOTOSTABILIZATION” (ISP Investments LLC, priority 2021, published 2024).

As for `CC(CCOC(=O)c1ccccc1)OC(=O)c1ccccc1` (stereo not drawn) [1,3-Butylene glycol Dibenzoate], the “Stability of Avobenzone” value is recorded as “not stable” and the “Stability of avobenzone-solvent combination (UV absorbance profile after 10 MED radiation vs initial, FIG. 1 to FIG. 6)” value is “highly instable”.

In the case of `Cc1ccc(C(=O)OC(C)c2ccccc2)cc1` (stereo not drawn) [1-Phenylethyl p-toluate], the “Stability of Avobenzone” value is “not stable”.

For the compound `CCC(OC(=O)c1ccccc1)c1ccccc1` (stereo not drawn) [1-Phenylpropyl Benzoate], the “Stability of Avobenzone” value is recorded as “not stable”.

Consider `O=C(OCCC1CCCCC1)c1ccccc1` [2-Cyclohexylethyl Benzoate], for which the “Stability of Avobenzone” value was “not stable”.

As for `O=C(OCCc1ccccc1)C1CCCCC1` [2-Phenylethyl Cyclohexanoate], the “Stability of Avobenzone” value is “not stable”.

Take `CCCCCC(=O)OCCc1ccccc1` [2-Phenylethyl Hexanoate]: the “Stability of Avobenzone” value is given as “not stable”.

On to `CCC(=O)OCCc1ccccc1` [2-Phenylethyl Propionate], for which the “Stability of Avobenzone” value is reported as “not stable”.

Turning to `Cc1ccccc1C(=O)OCCc1ccccc1` [2-Phenylethyl o-toluate], the “Stability of Avobenzone” value is listed as “stable” and the “Stability of avobenzone-solvent combination (UV absorbance profile after 10 MED radiation vs initial, FIG. 1 to FIG. 6)” value is “stable”.

Regarding `O=C(OCCCc1ccccc1)c1ccccc1` [3-Phenylpropyl Benzoate], the “Stability of Avobenzone” value is given as “stable”.

For the compound `CCc1ccc(C(=O)OCc2ccccc2)cc1` [Benzyl 4-Ethylbenzoate], the “Stability of Avobenzone” value was “not stable”.

In the case of `CC(C)(C)c1ccc(C(=O)OCc2ccccc2)cc1` [Benzyl 4-tert-Butylbenzoate], the “Stability of Avobenzone” value was “not stable” and the “Stability of avobenzone-solvent combination (UV absorbance profile after 10 MED radiation vs initial, FIG. 1 to FIG. 6)” value was “highly instable”.

Consider `O=C(OCc1ccccc1)c1ccccc1` [Benzyl Benzoate], for which the “Stability of Avobenzone” value is reported as “stable”.

In the case of `O=C(OCc1ccccc1)c1ccccc1O` [Benzyl Salicylate], the “Stability of Avobenzone” value is “not stable”.

`Cc1cccc(C(=O)OCc2ccccc2)c1` [Benzyl m-toluate]: the “Stability of Avobenzone” value is recorded as “not stable”.

Take `Cc1ccccc1C(=O)OCc1ccccc1` [Benzyl o-toluate]: the “Stability of Avobenzone” value is recorded as “stable” and the “Stability of avobenzone-solvent combination (UV absorbance profile after 10 MED radiation vs initial, FIG. 1 to FIG. 6)” value was “stable”.

Turning to `O=C(OC1CCCCC1)c1ccccc1` [Cyclohexyl Benzoate], the “Stability of Avobenzone” value is recorded as “not stable” and the “Stability of avobenzone-solvent combination (UV absorbance profile after 10 MED radiation vs initial, FIG. 1 to FIG. 6)” value is “highly instable”.

For `Cc1ccccc1C(=O)OC1CCCCC1` [Cyclohexyl o-toluate], the “Stability of Avobenzone” value was “not stable” and the “Stability of avobenzone-solvent combination (UV absorbance profile after 10 MED radiation vs initial, FIG. 1 to FIG. 6)” value is given as “highly instable”.

Consider `CCN(CC)C(=O)c1cccc(C)c1` [N,N-Diethyl m-toluamide], for which the “Stability of Avobenzone” value is given as “not stable” and the “Stability of avobenzone-solvent combination (UV absorbance profile after 10 MED radiation vs initial, FIG. 1 to FIG. 6)” value was “highly instable”.

For `O=C(OCCc1ccccc1)c1ccccc1` [Phenethyl benzoate], the “Stability of Avobenzone” value is reported as “stable” and the “Stability of avobenzone-solvent combination (UV absorbance profile after 10 MED radiation vs initial, FIG. 1 to FIG. 6)” value was “stable”.

As for `CC(COC(=O)c1ccccc1)OC(=O)c1ccccc1` (stereo not drawn) [Propylene glycol Dibenzoate], the “Stability of Avobenzone” value is given as “not stable” and the “Stability of avobenzone-solvent combination (UV absorbance profile after 10 MED radiation vs initial, FIG. 1 to FIG. 6)” value was “highly instable”.

For `Cc1cccc(COC(=O)c2ccccc2)c1` [m-Methylbenzyl Benzoate], the “Stability of Avobenzone” value is on record as “not stable”.

For the compound `Cc1ccccc1COC(=O)c1ccccc1` [o-Methylbenzyl Benzoate], the “Stability of Avobenzone” value is reported as “not stable”.

As for C12-C15 alkyl benzoate, the “Stability of Avobenzone” value was “not stable” and the “Stability of avobenzone-solvent combination (UV absorbance profile after 10 MED radiation vs initial, FIG. 1 to FIG. 6)” value is on record as “highly instable”.
